# Measured values: patent US20050043369A1, “Bactericidal antimicrobial methods and compositions for use in treating gram positive infections” (Protez Pharmaceuticals Inc., priority 2000, published 2005)
# Where two headings read alike, the source gives them in different places.
# Key:
# S. aureus strain SA1199 = assay: Screening and titration of potentiators with erythromycin (4 μg/ml), viability read by transfer to fresh medium; format: cell-based, Staphylococcus aureus; conditions: in the presence of 4 μg/ml erythromycin
# Experimental: In an exemplary screening assay, in order to identify a candidate acyl hydrazide, oxy amide or 8-hydroxy quinoline composition as an antibacterial agent potentiator, the S. aureus strain SA1199 may be used. The procedure for screening is as follows: logarithmically growing S. aureus SA1199 are inoculated to a final OD600 of 0.002 into 150 μl of LB medium containing a bacteriostatic concentration of an antimicrobial agent for that strain, for example, erythromycin (4 μg/ml) at four times the Minimal Inhibitory
# Concentration (MIC). […] In preliminary studies the inventors determined that under these conditions up to 2000 viable cells were transferred after incubation with erythromycin. As confirmed by broth microdilution, at least a 1000-fold reduction in viability was required to see no visible growth after 20 hours. Acyl hydrazide, oxy amide or 8-hydroxy quinoline antibiotic potentiators may be identified as those compounds that increase the bactericidal effect of the erythromycin.
# The macrolide erythromycin was chosen in the initial screen for two reasons: first, its mechanism of inhibition of protein synthesis is well characterized and second, as a macrolide, erythromycin is representative of an expanding class of agents which includes the second most prescribed antibiotic, azithromycin.
# In preliminary studies the inventors determined that under these conditions up to 2000 viable cells were transferred after incubation with erythromycin. As confirmed by broth microdilution, at least a 1000-fold reduction in viability was required to see no visible growth after 20 h.
# Next the activity of the hit compounds was compared by titration of the compounds in the presence of erythromycin at 4 μg/ml as described above.
# (§1) Activity of the compound is depicted as the minimal concentration required to kill 99.9% of S. aureus in the presence of 4 μg/ml erythromycin.
# S. aureus SA 29213 = assay: 55Fe transport assay (intracellular iron accumulation); format: cell-based, Staphylococcus aureus; conditions: for ^55Fe Accm.: compound at 2 μg/ml, S. aureus SA 29213
# Experimental: Next, investigated was whether INF 401 affects intracellular iron accumulation. An ^55Fe transport assay (modified from Sebulsky, 2000) was used to examine the ability of INF 401 to transport iron inside the cell. Briefly, exponentially growing cells were diluted to OD600 0.1 in LB, incubated with ^55FeCl3 for 30 min at 37° C., washed and counted in scintillation fluid using the tritium channel of a scintillation system. […] However, the presence of INF 401 in either the absence or presence of antibiotic led to a dramatic increase in iron accumulation (209,215 and 231,621 DPM, respectively).
# as §1
# S. aureus SA1199 [1] = assay: Checkerboard two-fold broth microdilution, MIC and MBC; format: cell-based, Staphylococcus aureus; conditions: for MBC^b = MBC in the presence of 5 μg/ml of INF 401: plus 5 μg/ml INF 401, unit not given
# Experimental: Checkerboard titration was performed with INF 401 and erythromycin to quantitate the effects of the combination on Staphylococcal growth using two-fold serial broth microdilution. After overnight incubation, cells were transferred to fresh medium, as described above, to determine those combinations that were bactericidal to S. aureus. […] Although not determined according to NCCLS recommended procedures ([…]), the inventors considered this the Minimal Bactericidal Concentration (MBC).
# The inventors next evaluated whether INF 401 was bactericidal in combination with other protein synthesis inhibitors which are bacteriostatic to S. aureus. Checkerboard studies were performed with two-fold dilutions of each antibiotic in combination with INF 401 using the assay described above in Example 2. After overnight incubation the MIC of each antibiotic was determined by visualization of bacterial growth. […] The MBC of each antibiotic was determined as described in Example 2 in the absence or presence of INF 401.
# S. aureus (SA1199) = assay: Time kill studies (CFU counts); format: cell-based, Staphylococcus aureus; conditions: antibiotic 1×MIC + 5 μg/ml INF 401
# Experimental: FIG. 5A, FIG. 5B and FIG. 5C. […]
# The initial inoculum number was determined by plating an appropriate dilution on LB agar plates and determining the number of colony forming units (CFUs). At different time points an aliquot was withdrawn from each tube and cell viability was determined by plating an appropriate dilution and counting CFUs after overnight incubation.
# S. pneumoniae = assay: Bactericidal activity (MBC) of translational inhibitors with or without INF 401 in S. pneumoniae; format: cell-based, Streptococcus pneumoniae; conditions: antibiotic alone
# Source text: It would be desirable that an antibiotic potentiator of the present invention is active not only in S. aureus but also in other bacterial pathogens. The inventors have begun studies to investigate whether INF 401 can also potentiate the activity of translational inhibitors in another Gram positive pathogen, S. pneumoniae.
# [2] = tested on: S. aureus strain ATTC 29213; assay: Characterization of killing by INF 401 plus chloramphenicol (viability, morphology, protein, DNA, metal dependence); format: cell-based, Staphylococcus aureus; conditions: chloramphenicol 20 μg/ml or INF 401 2 μg/ml alone
# Experimental: Time kill study of the effect of NF 401 in combination with chloramphenicol. Exponentially growing cells (S. aureus strain 29213) were diluted to OD600 0.1 in LB supplemented with 20 μg/ml of chloramphenicol (Cm) in the presence or absence of INF 401 (2 μg/ml) and incubated with shaking at 37° C. At indicated time points cells were harvested, washed with LB and plated on LB agar plates. Number of colony forming units (CFUs) was determined after overnight incubation.
# Time kill study of the effect of iron on the bactericidal activity of INF 401. S. aureus strain 29213 was grown overnight in iron-limited Staphylococcal Siderophore Detection (SSD) medium (Heinrichs, 1999) supplemented with 2 μM FeCl3, washed with SSD and diluted 1:100 into the fresh medium containing 0, 2 or 50 μm FeCl3. Exponentially growing cells were diluted to OD600 0.01 in the corresponding medium supplemented when indicated with 20 μg/ml of chloramphenicol (Cm) and 2 μg/ml of INF 401. At 0, 1, 2 and 3.5 hours cells were plated in different dilutions to the LB agar plates and number of colony forming units (CFUs) was counted next day.
# S. aureus SA1199 [3] = assay: Checkerboard two-fold broth microdilution, MIC and MBC; format: cell-based, Staphylococcus aureus; conditions: Table 2, plus 10 μg/ml INF 402, unit not given
# S. aureus ATCC 29213 = assay: MBEC assay system, checkerboard: planktonic MIC and biofilm MBEC; format: cell-based, Staphylococcus aureus; conditions: INF 401 at 0.3 μg/ml where in label
# Experimental: These studies were performed via the method of Dr. Howard Ceri (University of Calgary), who recently developed a method for the routine determination of the antibiotic susceptibility of biofilms. To date, the inventors have tested the effect of the combination of INF 401 on the ability of either clindamycin or rifampin to eradicate S. aureus biofilms in vitro. S. aureus ATCC 29213 was selected for the study as previous studies of this isolate as a biofilm had been conducted and the isolate served as a quality assurance organism for NCCLS standardization of antibiotic testing. Biofilms were formed as previously described for this organism (Ceri et al., 1999) using the MBEC™ assay system. Checkerboard studies were performed with each antibiotic versus INF 401.
# [4] = Table 2, S. aureus SA1199, unit inferred
# [5] = Staphylococcus aureus, Table 1, S. aureus SA1199, antibiotic alone, unit inferred, read-out: MBC^a = MBC in the absence of INF 401
# [6] = Staphylococcus aureus, Table 1, S. aureus SA1199, unit inferred, read-out: MIC
Structure (SMILES),Activity (minimal concentration required to kill 99.9% of S. aureus) (S. aureus strain SA1199),^55Fe Accm. (S. aureus SA 29213),"MBC^b = MBC in the presence of 5 μg/ml of INF 401 (S. aureus SA1199 [1]; Table 1, S. aureus SA1199)",MBC (S. aureus SA1199 [1]; [5]),MIC (S. aureus SA1199 [1]; [6]),also measured
O=C(Cc1ccccc1)N/N=C/c1c(O)ccc2ccccc12,0.15 µg/mL,"36,941 DPM",–,–,–,–
O=C(N/N=C/c1c(O)ccc2ccccc12)Nc1ccccc1,0.3 µg/mL,"14,400 DPM",–,–,–,–
COc1ccccc1NC(=O)N/N=C/c1c(O)ccc2ccccc12,>10 µg/mL,"1,900 DPM",–,–,–,–
Cc1cccc(CNC(=O)N/N=C/c2c(O)ccc3ccccc23)c1,>10 µg/mL,"1,500 DPM",–,–,–,–
Cc1ccc(CNC(=O)N/N=C/c2c(O)ccc3ccccc23)cc1,1.25 µg/mL,"9,100 DPM",–,–,–,–
O=C(N[C@H](CO)[C@H](O)c1ccc([N+](=O)[O-])cc1)C(Cl)Cl [Chloramphenicol],–,–,4,–,–,"MIC (S. aureus SA1199 [1]; Staphylococcus aureus, SA1199): 8 µg/mL; MBC (S. aureus SA1199 [1]; Staphylococcus aureus, SA1199, read-out: MBC^a = MBC in the absence of INF 401, Table 1, S. aureus SA1199, antibiotic alone, unit inferred): > 64 µg/mL; MBC (S. aureus SA1199 [1]; Staphylococcus aureus, SA1199, read-out: MBC^a = MBC in the absence of INF 401, Table 2, S. aureus SA1199, antibiotic alone, unit inferred): > 64 µg/mL; MIC (S. aureus SA1199 [1]; [4]): 8 µg/mL; reduction in cell viability, antibiotic in combination with INF 401 (S. aureus (SA1199)): 3 log10; bactericidal concentration in the absence of INF 401 as multiple of MIC (S. pneumoniae): 2 ×MIC; amount of ^55Fe accumulated by cells, single agent (S. aureus SA 29213; LB, ^55FeCl3 30 min 37° C., chloramphenicol alone or INF 401 in absence of antibiotic): 4,976 DPM; effect of single agent on DNA integrity [2]: did not affect DNA integrity; MBC^b = MBC in the presence of 10 μg/ml of INF 402 (S. aureus SA1199 [3]): 8"
[H]/N=C(\N/C(=N/[H])NCCCCCCNC(=N)NC(=N)Nc1ccc(Cl)cc1)Nc1ccc(Cl)cc1 [Chlorhexidine],–,–,1,4 µg/mL,1 µg/mL,–
CCC[C@@H]1C[C@@H](C(=O)N[C@@H]([C@H]2O[C@H](SC)[C@H](O)[C@@H](O)[C@H]2O)[C@H](C)Cl)N(C)C1 [Clindamycin],–,–,0.125,4 µg/mL,0.25 µg/mL,"bactericidal concentration of antibiotic alone as multiple of MIC (S. aureus SA1199 [1]; S. aureus, absence of INF 401): 4 ×MIC; MBC^a = MBC in the absence of INF 401 (S. aureus SA1199 [1]; Table 2, S. aureus SA1199, antibiotic alone, unit inferred): 4 µg/mL; MIC (S. aureus SA1199 [1]; [4]): 0.25 µg/mL; reduction in cell viability, antibiotic in combination with INF 401 (S. aureus (SA1199)): 3 log10; MIC (S. aureus ATCC 29213; Staphylococcus aureus, ATCC29213, planktonic population): < 1 µg/mL; MBEC (S. aureus ATCC 29213; biofilm population): 256 µg/mL; MBC^b = MBC in the presence of 10 μg/ml of INF 402 (S. aureus SA1199 [3]): 2"
N[C@@H]1CON=C1O [Cycloserine],–,–,32,> 256 µg/mL,32 µg/mL,–
